Assay results from publication PMC3922101 (Osong Public Health and Research Perspectives, 2013).

Tests used:
Format in all cases: biochemical, influenza A/Chungbuk/4448/2008(H1N1) virus
[1] = biological target: neuraminidase (NA) of recombinant virus Chungbuk-Y275H-N295S-I117M (Influenza A virus (A/Chungbuk/4448/2008(H1N1)), UniProt E3JK96, I117M/N295S/Y275H)
[2] = biological target: neuraminidase (NA) of recombinant virus Chungbuk-Y275H-N295S-I223V (Influenza A virus (A/Chungbuk/4448/2008(H1N1)), UniProt E3JK96, I223V/N295S/Y275H)
[3] = system: NA of all the single, double, and triple mutants containing the E119V mutation
[4] = biological target: neuraminidase (NA) of recombinant virus Chungbuk-Y275-N295S-I223V (Influenza A virus, UniProt E3JK96, I223V/N295S)
[5] = biological target: neuraminidase (NA) of recombinant virus Chungbuk-Y275-E119V (Influenza A virus, UniProt E3JK96, E119V)
[6] = biological target: neuraminidase (NA) of recombinant virus Chungbuk-Y275-N295S-I117M (Influenza A virus, UniProt E3JK96, I117M/N295S)
[7] = system: NA of all the single and double mutants containing tyrosine (Y) at NA residue 275 except Chungbuk-Y275-E119V
[8] = biological target: neuraminidase (NA) of recombinant virus Chungbuk-Y275H-E119V (Influenza A virus, UniProt E3JK96, E119V/Y275H)
[9] = biological target: neuraminidase (NA) of recombinant virus Chungbuk-Y275H-N295S-I117V (Influenza A virus (A/Chungbuk/4448/2008(H1N1)), UniProt E3JK96, I117V/N295S/Y275H)

CC(=O)N[C@H]1[C@H]([C@H](O)[C@H](O)CO)OC(C(=O)O)=C[C@@H]1N=C(N)N [Zanamivir]
NAI resistance phenotype [1]: susceptible
NAI resistance phenotype [2]: susceptible
NAI resistance phenotype [3]: resistance
NAI resistance phenotype [4]: susceptible
NAI resistance phenotype [5]: important levels of resistance
NAI resistance phenotype [6]: susceptible
NAI resistance phenotype [7]: susceptibility
NAI resistance phenotype [8]: important levels of resistance
NAI resistance phenotype [9]: susceptible
